Experimental data reported in US7399786B2, “Derivatives of amino acids for treatment of obesity and related disorders” (Bexel Pharmaceuticals, Inc., priority 2005, dated 2008).

Experiments:
[1] = High fat diet induced obesity (DIO) model; assay type: in vivo, C57BL/6J male mice; conditions: DIO mice
Procedure: Six week old C57BL/6J male mice were fed with high fat (60%) diet for 14 days. From day 15 onwards animals were treated with compound 9 at a dose of 50 mg/kg body weight or sibutramine (5 mg/kg bw) for 60 days. All the animals were dosed once daily during morning hours up to day 15. From day 16 to end of the study animals were dosed during evening hours.

[2] = Hypoglycemic effect in normal lean mice; assay type: in vivo, C57BL/6J lean male mice; conditions: 50 mg/kg body weight for 60 days, measured every third day
Procedure: C57BL/6J lean male mice were fed, ad libitum, with laboratory rodent diet and purified water. Animals were treated with compound 9 at a dose of 50 mg/kg body weight for 60 days. Blood glucose was measured with an ACCUCHECK® glucose meter every third day during morning hours. No change in blood glucose levels was observed.

IL-1β = IL-1β inhibition in hPBMC, LPS challenge, ELISA; assay type: cell-based, human; conditions: 1 μM, LPS 100 ng/mL for 20 hours
Procedure: (§1) Cells (1×10^6/mL) were challenged with lipopolysaccharides (LPS) at a concentration of (100 ng/mL) for 20 hours. Cell supernatant was analyzed for the presence of IL-6 and IL-1β by antibody directed enzyme-linked immunoassay (R & D Systems, MN, USA).

IL-6 = IL-6 inhibition in hPBMC, LPS challenge, ELISA; assay type: cell-based, human; conditions: 1 μM, LPS 100 ng/mL for 20 hours
Procedure: as §1

LPS induced NO = experiment: Inhibition of LPS induced NO in mouse peritoneal macrophages; assay type: cell-based; conditions: compound 1 hour then LPS 10 μg/mL for 48 hrs
Procedure: Mouse peritoneal macrophages were isolated by injecting warm PBS in the peritoneum and cells were tapped out with syringe and stored in a tube. After two washes with PBS, cells were plated in 96 well plates and incubated with compound 9 for 1 hour and then challenged with LPS (10 μg/mL) for 48 hrs. Supernatant was assayed for NO by ELISA kit (R&D Biosystems).

3T3-L1 cells = experiment: PPARγ agonist induced adipocyte differentiation, Oil red O staining; assay type: cell-based, mouse; conditions: 11 days
Procedure: Adipogenesis is defined as the production of fat laden adipocytes from fibroblast cells. All known PPARγ agonists induce adipogenesis after a long term of treatment. […] Cells were cultured for 11 days and every 48 h fresh drug was given while changing the media.

[3] = 50 mg/kg for 60 days, compared to control animals

Question: With `CC(C)CC(N(C)C)C1(c2ccc(Cl)cc2)CCC1` (centres unmarked) [Sibutramine, reference compound] as the compound, how does the bodyweight gain ([1]; 5 mg/kg bw once daily for 60 days) read?
Answer: Reduced Bodyweight Gain

Question: Which blood glucose levels [2] does the source give for `CN(C)C(=O)[C@@H](N)Cc1ccc(Oc2ccc(CCC(=O)NO)cc2)cc1.Cl` [compound 9, L-2-amino-3-{4-[4-(2-hydroxycarbamoylethyl)-phenoxy]-phenyl}-N,N-dimethylpropionamide hydrochloride] here?
Answer: No change

Question: And the “inhibition of IL-1β” value (IL-1β)?
Answer: inhibition

Question: What about the “inhibition of IL-6” value (IL-6) of the same compound?
Answer: inhibition

Question: And the body weight ([1]; 50 mg/kg body weight once daily for 60 days)?
Answer: lowered body weight

Question: And the oral glucose tolerance ([1]; 50 mg/kg for 60 days)?
Answer: improved

Question: And the “free fatty acid levels” value [1, 3]?
Answer: significantly lowered

Question: What about the triglyceride levels [1, 3] of the same compound?
Answer: significantly lowered

Question: And the NO production (LPS induced NO)?
Answer: doses dependently inhibited NO production

Question: What about the “adipocyte differentiation (adipogenesis), compound alone” value (3T3-L1 cells; 10 μM alone, Oil red O) of the same compound?
Answer: not adipogenic

Question: What about the “adipogenesis induced by PPARγ agonist, combined treatment” value (3T3-L1 cells; compound 10 μM mixed with rosiglitazone 1 μM) of the same compound?
Answer: blocks the adipogenesis process induced by PPARγ agonist
